Test results from patent US8507504B2, “Process for producing bicycloaniline derivatives” (Merck Sharp & Dohme Corp., priority 2008, dated 2013).

Tested on: Human colon cancer cells WiDr
Assay: Tumor growth inhibitory effect, WiDr xenograft in nude rats, combined with gemcitabine
Type: in vivo, F344/N Jcl-rnu nude rats
Conditions: summary of Table 1
Protocol: Pharmacological Test 2 (Tumor Growth Inhibitory Effect)
Human colon cancer cells WiDr (obtained from ATCC) were implanted into the subcutaneous area of the back of F344/N Jcl-rnu nude rats. 12 days after the implantation, 5 mg/kg of gemcitabine (Gemzar, from Eli Lily) was intravenously administered to them; and after 24 hours, a test compound suspended in a solvent (0.5% methyl cellulose) was orally administered thereto. This was repeated once a week for 3 weeks. The tumor volume (0.5×major diameter×(minor diameter)^2) was measured on days 0, 3, 6, 10, 13, 17, 20, 24 and 27 (the first gemcitabine administration is on day 0). The relative tumor volume was calculated, based on the tumor volume on day 0, as 1. The tumor growth rate (% T/C) was obtained according to the formulae mentioned below.
In case where the tumor volume change from day 0 in the test compound administration group is more than 0 (>0): % T/C=(tumor volume change in the test compound group on days 3, 6, 10, 13, 17, 20, 24 and 27/tumor volume change in the control group on days 3, 6, 10, 13, 17, 20, 24 and 27)×100.
In case where the tumor volume change from day 0 in the test compound administration group is less than 0 (<0): % T/C=(tumor volume change in the test compound group on days 3, 6, 10, 13, 17, 20, 24 and 27/tumor volume […] in the test compound group on day 0)×100. […]

Nc1ccn([C@@H]2O[C@H](CO)[C@@H](O)C2(F)F)c(=O)n1 [Gemcitabine, gemcitabine]
tumor growth rate (result in words): reduced the tumor growth rate
